Reference: US10183047B2, “Chromium-containing compositions in combination with Phyllanthus emblica and shilajit having synergistic effects for improving endothelial function and cardiovascular health” (Natreon, Inc., priority 2014, dated 2019)

What was measured:
Type in all cases: in vivo, human
lipid profile [1] = experiment: Lipid profile (TC, HDL-C, LDL-C, TG, VLDL-C), type 2 diabetics
Description: (§1) The present clinical study is a prospective, randomized, double blind, placebo-controlled study. Patients of either sex, aged 30-65 years, fasting plasma glucose of 110-126 mg/dl, a glycosylated hemoglobin (HbA1c) between 6.5% and 8% and taking stable dose of anti-diabetic treatment (metformin 1500-2000 mg/day) for the past 8 weeks prior to the screening visit; and having endothelial dysfunction defined as ≤6% change in reflection index (RI) on post salbutamol challenge test were included in the study. Patients with severe uncontrolled hyperglyceamia, uncontrolled hypertension, cardiac arrhythmia, impaired hepatic or renal function, history of malignancy or stroke, smoking, chronic alcoholism, any other serious disease requiring active treatment and treatment with any other herbal supplements, were excluded from the study.
(§2) After screening, all the eligible subjects were randomized to receive either one of the three treatments orally for duration of 12 weeks—Group1—one capsule of Crominex®3+, 200 mcg once daily, Group 2—one capsule Crominex®3+, 400 mcg once daily; Group 3—one capsule of placebo once daily.
(§3) Subjects were required for follow up at 4, 8 and 12 weeks of therapy. At each visit they were evaluated for efficacy and safety. Pharmacodynamic evaluation for endothelial function was conducted at every visit. Blood samples were collected for evaluation of biomarkers before and at the end of treatment. Safety lab investigations for hematological, hepatic and renal biochemical parameters were conducted before and at the end of the study and also as and when required (in case of any adverse drug reaction (ADR). Subjects were enquired for the presence of ADR and the same was recorded in the case report form. Compliance to therapy was assessed by pill count method.
(§4) All the subjects had undergone complete physical examination, safety lab evaluations at baseline and at the end of the treatment. Samples were collected after an overnight fast of 12 hrs after the last dose of medication for determination of hemoglobin, glycosylated hemoglobin (HbA1c), blood urea, serum creatinine, liver function, lipid profile (Total cholesterol, High density lipoprotein cholesterol (HDL-C), low density lipoprotein cholesterol (LDL-C) using appropriate standard techniques.
(§5) When the results with Crominex® 3+ in the above two examples were highly significant, especially with the 400 mcg once daily dose in type 2 diabetics, two more clinical studies (EXAMPLES 3 & 4) were conducted at the same institute, following the same methodology as described earlier, on the individual components of Crominex® 3+, i.e., chromium chloride and Phyllanthus emblica+Shilajit, and other chromium supplements available in the market, i.e., chromium picolinate, chromium polynicotinate and chromium dinicocysteinate, in type 2 diabetics as well as in subjects with metabolic syndrome symptoms.

glutathione (GSH) = experiment: Glutathione level, metabolic syndrome subjects
Description: (§6) Nitric oxide, MDA, Glutathione and levels were estimated spectrophotometrically as follows. Malondialdehyde (MDA) levels were determined as described in Vidyasagar, et al., “Oxidative stress and antioxidant status in acute organophosphorous insecticide poisoning,” Indian J. Pharmacol. (April 2004) 36(2): 76-79. Glutathione levels were determined as described in G. L. Ellman, Arch. Biochem. Biophys. (1959) 82: 70-77 (original determination). Nitric oxide levels were estimated spectrophotometrically as described in Miranda, et al., “A Rapid, Simple Spectrophotometric Method for Simultaneous Detection of Nitrate and Nitrite,” NITRIC OXIDE: Biology and Chemistry (2001) Vol. 5, No. 1, pp. 62-71. hsCRP (high sensitivity C-reactive protein) was determined by ELISA method.
(§7) Patients included in the study, were of either gender, aged 30-68 years, having endothelial dysfunction defined as ≤6% change in reflection index (RI) on post salbutamol challenge test and central obesity as defined by The International Diabetes Federation guidelines, dated 2006, and any two of the following conditions:
(§8) After screening, all the eligible subjects were randomized to receive either one of the three treatments orally for duration of 12 weeks: group 1—one capsule of Crominex®3+ 200 mcg once daily; group 2—one capsule 400 mcg once daily; group 3—one capsule of Placebo once daily.
(§9) Subjects were reviewed for follow up at 4 weeks, 8 and 12 weeks of therapy. At each visit they were evaluated for efficacy and safety. Pharmacodynamic evaluation for endothelial function was conducted at baseline and end of treatment. Blood samples were collected for evaluation of biomarkers before and at end of treatment. Safety lab investigations for hematological, hepatic and renal biochemical parameters were conducted before and at the end of the study and also as and when required (in case of any adverse drug reaction (ADR)). Subjects were enquired for the presence of ADR and the same was recorded in the case report form. Compliance to therapy was assessed by pill count method.
(§10) Assessment of endothelial function, biomarkers, safety parameters and primary and secondary efficacy parameters and data analysis were performed as described under the study with type 2 diabetic subjects in Example 1.
as §5

fasting plasma glucose [2] = experiment: Fasting plasma glucose, metabolic syndrome subjects
Source text: as §7, §8, §9, §5

lipid profile [3] = experiment: Lipid profile (TC, HDL-C, LDL-C, TG), metabolic syndrome subjects
Source text: as §4
as §7, with “conditions: […]” for “conditions:”
as §9, §10, §5

nitric oxide (NO) [4] = experiment: Nitric oxide level, metabolic syndrome subjects
Description: as §6, §7, §8, §9, §10, §5

nitric oxide (NO) [5] = experiment: Nitric oxide level, spectrophotometric, type 2 diabetics
Description: as §1, §2, §3, §6, §5

fasting plasma glucose [6] = experiment: Fasting plasma glucose, type 2 diabetics
Description: as §5

[7] = type 2 diabetics (Example 3), chromium products 400 mcg, 12 weeks of treatment
[8] = type 2 diabetics (Example 3), chromium products 400 mcg, post-treatment, 12 weeks
[9] = type 2 diabetics (Example 3), chromium products 400 mcg, pre-treatment
[10] = metabolic syndrome subjects (Example 4), chromium products 400 mcg, after 12 weeks of treatment
[11] = metabolic syndrome subjects (Example 4), chromium products 400 mcg, after 12 weeks treatment
[12] = metabolic syndrome subjects (Example 4), chromium products 400 mcg, pre-treatment

chromium picolinate
HDL (lipid profile [1]; DM, 400 mcg): 2.96%
LDL (lipid profile [1]; DM, 400 mcg): −2.35%
TC (lipid profile [1]; DM, 400 mcg): −0.99%
TG (lipid profile [1]; DM, 400 mcg): −0.58%
Mean percentage change in HDL-C (lipid profile [1]; [7]): 2.96 ± 3.38 @NS %
Mean percentage change in LDL-C (lipid profile [1]; [7]): −2.35 ± 1.81 @NS %
Mean percentage change in Total Cholesterol (lipid profile [1]; [7]): −0.99 ± 1.08NS %
Mean percentage change in Triglycerides (lipid profile [1]; [7]): −0.58 ± 1.04 NS %
HDL-C Post Tt (lipid profile [1]; [8]): 39.84 ± 1.12 $ mg/dl
LDL-C Post Tt (lipid profile [1]; [8]): 119.07 ± 18.46 mg/dL
Total Cholesterol Post Tt (lipid profile [1]; [8]): 194.68 ± 17.93 $ mg/dl
Triglycerides Post Tt (lipid profile [1]; [8]): 178.84 ± 8.45 $ mg/dl
HDL-C Pre Tt (lipid profile [1]; [9]): 38.74 ± 1.69 mg/dL
LDL-C Pre Tt (lipid profile [1]; [9]): 121.92 ± 18.50 mg/dL
Total Cholesterol Pre Tt (lipid profile [1]; [9]): 196.63 ± 18.07 mg/dL
Triglycerides Pre Tt (lipid profile [1]; [9]): 179.89 ± 8.65 mg/dL
GSH (glutathione (GSH); MS, 400 mcg): 7.1%
GSH Post Tt (glutathione (GSH); [10]): 550.63 ± 26.21 μM/L
Mean percentage change in GSH (glutathione (GSH); [11]): 7.07 ± 1.95%
GSH Pre Tt (glutathione (GSH); [12]): 514.35 ± 25.09 μM/L
Fasting Glucose (fasting plasma glucose [2]; MS, 400 mcg): −4.27%
Fasting Plasma Glucose Post Tt (fasting plasma glucose [2]; [10]): 96.63 ± 13.11 @
Fasting Plasma Glucose Pre Tt (fasting plasma glucose [2]; [12]): 100.95 ± 14.05 ^
HDL (lipid profile [3]; MS, 400 mcg): 2.1%
LDL (lipid profile [3]; MS, 400 mcg): −2.19%
TC (lipid profile [3]; MS, 400 mcg): −1.18%
TG (lipid profile [3]; MS, 400 mcg): −1.07%
LDL-C, mean percentage change (lipid profile [3]; mean percentage change after 12 weeks of treatment, 400 mcg, Example 4): -2.19%
HDL-C Post Tt (lipid profile [3]; [10]): 37.84 ± 4.45@ mg/dl
LDL-C Post Tt (lipid profile [3]; [10]): 111.55 ± 12.58 mg/dL
Mean percentage change in HDL-C (lipid profile [3]; [10]): 2.10 ± 2.84%
Mean percentage change in Total Cholesterol (lipid profile [3]; [10]): −1.18 ± 0.90%
Mean percentage change in Triglycerides (lipid profile [3]; [10]): −1.07 ± 1.20%
Total Cholesterol Post Tt (lipid profile [3]; [10]): 182.84 ± 12.60 mg/dL
Triglycerides Post Tt (lipid profile [3]; [10]): 167.26 ± 10.71 mg/dL
HDL-C Pre Tt (lipid profile [3]; [12]): 37.11 ± 4.32 mg/dL
LDL-C Pre Tt (lipid profile [3]; [12]): 114.13 ± 12.80 mg/dL
Total Cholesterol Pre Tt (lipid profile [3]; [12]): 185.05 ± 13.03 mg/dL
Triglycerides Pre Tt (lipid profile [3]; [12]): 169.11 ± 11.02 mg/dL
NO (nitric oxide (NO) [4]; MS, 400 mcg): 13.9%
NO Post Tt (nitric oxide (NO) [4]; [10]): 32.94 ± 3.79 μM/L
Mean percentage change in NO (nitric oxide (NO) [4]; [11]): 13.92 ± 2.65%
NO Pre Tt (nitric oxide (NO) [4]; [12]): 28.94 ± 3.56 μM/L
NO (nitric oxide (NO) [5]; DM, 400 mcg): 11.1%
Mean percentage change in NO (nitric oxide (NO) [5]; type 2 diabetics (Example 3), chromium products 400 mcg, 12 week treatment): 11.09 ± 4.73@NS %
NO Post Tt (nitric oxide (NO) [5]; [8]): 32.96 ± 2.54 μM/L
NO Pre Tt (nitric oxide (NO) [5]; [9]): 29.75 ± 2.92 μM/L
Fasting Glucose (fasting plasma glucose [6]; DM, 400 mcg): 1.2%
Fasting Plasma Glucose Post Tt (fasting plasma glucose [6]; [8]): 134.84 ± 6.78 NS mg/dL
Fasting Plasma Glucose Pre Tt (fasting plasma glucose [6]; [9]): 133.21 ± 8.27 mg/dL
